# Biological target: T1, Serine/threonine-protein phosphatase 5 (Homo sapiens, UniProt P53041)
# T1 sequence (P53041 whole entry): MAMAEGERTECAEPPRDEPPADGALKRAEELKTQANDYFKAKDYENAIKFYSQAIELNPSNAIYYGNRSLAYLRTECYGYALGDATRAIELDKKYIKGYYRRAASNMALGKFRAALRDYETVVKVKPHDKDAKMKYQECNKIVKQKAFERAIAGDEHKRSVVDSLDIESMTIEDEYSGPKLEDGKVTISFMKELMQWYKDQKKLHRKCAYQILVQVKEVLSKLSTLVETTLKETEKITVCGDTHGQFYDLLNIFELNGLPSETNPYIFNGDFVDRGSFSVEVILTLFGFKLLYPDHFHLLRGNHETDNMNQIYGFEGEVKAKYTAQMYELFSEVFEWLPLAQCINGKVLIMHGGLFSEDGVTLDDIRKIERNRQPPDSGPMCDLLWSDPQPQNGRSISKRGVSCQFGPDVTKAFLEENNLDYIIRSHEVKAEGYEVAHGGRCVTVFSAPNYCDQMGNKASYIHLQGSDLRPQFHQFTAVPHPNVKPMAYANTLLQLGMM
# Assay: Fluorescence Polarization Assay
# Conditions: pH 7.4; 25 °C
# Experimental: All fluorescence polarization experiments were conducted in 384-well, black, low volume, round-bottomed plates (Corning) using a BioTeck Synergy 2 plate reader (Winooski, VT). For binding experiments, to each well was added increasing amounts of protein and the 5-carboxyfluorescein-labeled Hsp70/90 C-terminal probe/tracer (20 nM). […] The plate was allowed to incubate at room temperature for 5 min toreach equilibrium. […] An equilibrium binding isotherm was constructed by plotting the fluorescence polarization reading as a function of the protein concentration at a fixed concentration of tracer (20 nM).
row,Molecule,Kd [nM]
1,CC[C@H](C)[C@H](NC(=O)[C@@H](NC(=O)[C@@H]1CCCN1C(=O)CNC(=O)[C@H](CO)NC(=O)[C@@H](N)CO)[C@@H](C)O)C(=O)N[C@@H](CCC(=O)O)C(=O)N[C@@H](CCC(=O)O)C(=O)N[C@H](C(=O)N[C@@H](CC(=O)O)C(=O)O)C(C)C,1060
2,CC[C@H](C)[C@H](N)C(=O)N[C@@H](CCC(=O)O)C(=O)N[C@@H](CCC(=O)O)C(=O)N[C@H](C(=O)N[C@@H](CC(=O)O)C(=O)O)C(C)C [IEEVD],426
3,H-DDTSRIEEVD-OH,420
4,H-DVEEM-OH [DVEEM],> 10000

# Further molecules by falling Kd, results first:
row,Kd [nM],Molecule
1,133,CSCC[C@H](NC(=O)[C@@H](NC(=O)[C@@H]1CCCN1C(=O)CNC(=O)[C@H](CO)NC(=O)CN)[C@@H](C)O)C(=O)N[C@@H](CCC(=O)O)C(=O)N[C@@H](CCC(=O)O)C(=O)N[C@H](C(=O)N[C@@H](CC(=O)O)C(=O)O)C(C)C
2,77,CSCC[C@H](NC(=O)[C@H](CCCNC(=N)N)NC(=O)[C@H](CO)NC(=O)[C@H](C)NC(=O)[C@H](CC(=O)O)NC(=O)[C@@H](N)CCC(=O)O)C(=O)N[C@@H](CCC(=O)O)C(=O)N[C@@H](CCC(=O)O)C(=O)N[C@H](C(=O)N[C@@H](CC(=O)O)C(=O)O)C(C)C
